Here are results for 5 compounds from paper PMC5567816 (ACS chemical biology, 2017).

SMILES strings stand for the structures. “Also recorded” adds a separate entry of the source.

One series concerns Hek293 lysates. The series is described as follows: deacylase activities of Hek293 lysates with inhibitors. The format is cell-based. The following applies: 24 h; vorinostat and PD-106 1 μM, tubA 0.5 μM.
Series [1] has as its system Hek293 cells. The series is described as follows: Western blot of Hek293 cells, histone and tubulin acetylation. As to conditions: inhibitors 1 μM, tubA 0.5 μM, 24 h. It is filed as cell-based. (Immunoblotting shows a protein as a band on a membrane.)
The subject of series [2] is Hek293 cells. The series is described as follows: global valerylation levels of Hek293 cells. It is filed as cell-based. The following applies: inhibitors 1 μM, tubA 0.5 μM, 24 h.
In series [3] the test system is Hek293 cells. The series is described as follows: global formylation levels of Hek293 cells. The following applies: inhibitors 1 μM, tubA 0.5 μM, 24 h. The format is cell-based.
In a further series the test system is HCT116 and HT29 cells. The following applies: 2 μM for 24 h; cited from earlier work.
For series [4], the system named is RAW264.7 cells. The series is described as follows: Western blot of RAW264.7 cells, protein acetylation. The format is cell-based. As to conditions: tubA at 0.5 μM.
Another series deals with HDAC6. As to conditions: HDAC6 specific inhibitor; cited from earlier work.
The test system of a further series is class IIa HDACs. As to conditions: cited from earlier work.
The test system of series [5] is RAW264.7 cells. The series is described as follows: cell viability of RAW264.7 cells. It is filed as cell-based.
For a further series, the system named is RAW264.7 macrophages. The series is described as follows: NO production in LPS-challenged RAW264.7 macrophages. The format is cell-based. The following applies: 1 μM; decrease completely offset when normalized.
In another series the test system is A549 cell line. As to conditions: reasonable concentrations; cited from earlier work.
Series [6] deals with RAW264.7 cells. The series is described as follows: HMGB-1 secretion from activated RAW264.7 cells. The format is cell-based. As to conditions: LPS-activated RAW264.7; 6 h.
The target in a further series is HDAC3 (Homo sapiens, UniProt O15379). The series is described as follows: HDAC3 coincubated with TFA substrate and inhibitor.
Chain of HDAC3 (O15379 whole entry): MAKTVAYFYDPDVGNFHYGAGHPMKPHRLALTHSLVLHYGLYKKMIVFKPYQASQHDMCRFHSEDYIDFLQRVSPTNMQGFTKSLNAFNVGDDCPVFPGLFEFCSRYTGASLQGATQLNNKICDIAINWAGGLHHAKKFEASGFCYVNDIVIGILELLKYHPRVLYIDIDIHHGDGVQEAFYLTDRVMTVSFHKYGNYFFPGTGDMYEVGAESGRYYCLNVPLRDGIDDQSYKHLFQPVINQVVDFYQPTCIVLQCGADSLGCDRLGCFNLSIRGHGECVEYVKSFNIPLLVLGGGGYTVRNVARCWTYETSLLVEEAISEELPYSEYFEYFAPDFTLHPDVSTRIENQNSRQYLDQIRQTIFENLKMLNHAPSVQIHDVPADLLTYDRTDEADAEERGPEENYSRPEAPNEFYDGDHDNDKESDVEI
Chain of HDAC3 (Q9Y618 395-489 partner limits assumed): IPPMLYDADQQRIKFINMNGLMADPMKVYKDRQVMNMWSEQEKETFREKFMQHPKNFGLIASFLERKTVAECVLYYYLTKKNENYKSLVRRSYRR
Series [7] relates to RAW264.7 cells. The series is described as follows: p65 and HDAC3 subcellular localization in LPS-treated RAW264.7 cells. It is filed as cell-based. The following applies: after LPS treatment.

`CN1CCc2c(c3ccccc3n2Cc2ccc(C(=O)NO)cc2)C1` [Tubastatin A]: in the series with Hek293 lysates, the “deacetylase activity of Hek293 lysates” value is reported as “did not affect overall deacetylation activity; also recorded: no effect on deacetylation or devalerylation”, the “deformylase activity of Hek293 lysates” value is on record as “did lower deformylation activity” and the “devalerylase activity of Hek293 lysates” value is listed as “no effect on deacetylation or devalerylation”. For the same compound, in the series with Hek293 cells [1], the “histone H3 and H4 acetylation” value is recorded as “only affected acetylated tubulin levels”; the tubulin acetylation entry was “only affected acetylated tubulin levels”. Further, the global protein valerylation entry in the series with Hek293 cells [2] is “nonsignificant hypovalerylation”. For the same compound, in the series on Hek293 cells [3], the global protein formylation result is reported as “induced global protein hyperformylation”. For the same compound, the “p53 Lys382 acetylation” value with HCT116 and HT29 cells is recorded as “able to induce hyperacetylation of Lys382”. In addition, the “p53 Lys382 acetylation” value with RAW264.7 cells [4] is given as “do not demonstrate this increase”. Moreover, the IC50 with HDAC6 is […].
For `O=C(NO)C(c1ccccc1)c1ccccc1` [dPAHA, diphenyl acetic hydroxamic acid], the “inhibitory activity for class IIa HDACs” value in the series on class IIa HDACs was “only possesses the ability to inhibit class IIa HDACs”.
Take `Nc1ccccc1NC(=O)c1ccc(CNC(=O)OCc2cccnc2)cc1` [entinostat]: in the series on Hek293 cells [1], the “histone H3 and H4 acetylation” value is recorded as “induced hyperacetylation of histones”; the tubulin acetylation entry is reported as “without affecting tubulin acetylation levels”. The “lethality (cell viability)” value with RAW264.7 cells [5] is “more lethal than 2a–2c”. Moreover, the “NO release, before normalization to cell count/viability” value in the series with RAW264.7 macrophages is “did lower NO release”. For the same compound, the global protein valerylation result with Hek293 cells [2] is recorded as “global protein hypervalerylation”. In the series with Hek293 cells [3], the global protein formylation result is listed as “also capable of this effect”.
On to `C/C=C1\NC(=O)[C@H]2CSSCC/C=C/[C@H](CC(=O)N[C@H](C(C)C)C(=O)N2)OC(=O)[C@H](C(C)C)NC1=O` [romidepsin], for which the “p53 Lys373 and Lys382 acetylation” value in the series on A549 cell line was “induce hyperacetylation of Lys373 and Lys382”.
`O=C(CCCCCCC(=O)Nc1ccccc1)NO` [vorinostat]: the HMGB-1 secretion entry with RAW264.7 cells [6] was “prevents HMGB-1 secretion”. Moreover, in the series with Hek293 lysates, the “deacetylase activity of Hek293 lysates” value is “inhibit both deacetylation and deformylation; also recorded: lowering in both deacetylation and devalerylation”; the “deformylase activity of Hek293 lysates” value was “inhibit both deacetylation and deformylation”; the “devalerylase activity of Hek293 lysates” value was “lowering in both deacetylation and devalerylation”. In addition, in the series with Hek293 cells [1], the “histone H3 and H4 acetylation” value is “induced hyperacetylation of tubulin and histones H3 and H4”; the tubulin acetylation result is “induced hyperacetylation of tubulin and histones H3 and H4”. Also, the “lethality (cell viability)” value with RAW264.7 cells [5] is “more lethal than 2a–2c”. Moreover, the “NO release, before normalization to cell count/viability” value with RAW264.7 macrophages is “did lower NO release”. Further, the “effect on HDAC3's ability to deacylate the TFA substrate” value at HDAC3 is reported as “capable of altering HDAC3’s ability to deacylate the TFA substrate”. Further, in the series on Hek293 cells [2], the global protein valerylation result is “global protein hypervalerylation”. Besides, the “nuclear localization of HDAC3” value in the series with RAW264.7 cells [7] is recorded as “not as pronounced”. For the same compound, the global protein formylation entry in the series on Hek293 cells [3] is listed as “caused global protein hyperformylation”.

A word on the IC50: it is the point on the concentration scale where inhibition reaches its midpoint.
